Data from US20030199523A1, “Heterocyclic calcium in channel blockers” (priority 2002, published 2003).

Assays:
Type in all cases: cell-based
[1] = molecular target: T1, L-type channels (α1C+α2δ+β1b) (Homo sapiens, UniProt Q13936); assay: Whole cell patch clamp block of L-type calcium channels transiently expressed in HEK 293 cells; conditions: step to +20 mV from holding potential −80 mV, 0.1 Hz, 5 mM barium external solution
T1 construct: expressed in transfected cells; host or cells: HEK 293 (transient)
T1 sequence (Q13936 whole entry): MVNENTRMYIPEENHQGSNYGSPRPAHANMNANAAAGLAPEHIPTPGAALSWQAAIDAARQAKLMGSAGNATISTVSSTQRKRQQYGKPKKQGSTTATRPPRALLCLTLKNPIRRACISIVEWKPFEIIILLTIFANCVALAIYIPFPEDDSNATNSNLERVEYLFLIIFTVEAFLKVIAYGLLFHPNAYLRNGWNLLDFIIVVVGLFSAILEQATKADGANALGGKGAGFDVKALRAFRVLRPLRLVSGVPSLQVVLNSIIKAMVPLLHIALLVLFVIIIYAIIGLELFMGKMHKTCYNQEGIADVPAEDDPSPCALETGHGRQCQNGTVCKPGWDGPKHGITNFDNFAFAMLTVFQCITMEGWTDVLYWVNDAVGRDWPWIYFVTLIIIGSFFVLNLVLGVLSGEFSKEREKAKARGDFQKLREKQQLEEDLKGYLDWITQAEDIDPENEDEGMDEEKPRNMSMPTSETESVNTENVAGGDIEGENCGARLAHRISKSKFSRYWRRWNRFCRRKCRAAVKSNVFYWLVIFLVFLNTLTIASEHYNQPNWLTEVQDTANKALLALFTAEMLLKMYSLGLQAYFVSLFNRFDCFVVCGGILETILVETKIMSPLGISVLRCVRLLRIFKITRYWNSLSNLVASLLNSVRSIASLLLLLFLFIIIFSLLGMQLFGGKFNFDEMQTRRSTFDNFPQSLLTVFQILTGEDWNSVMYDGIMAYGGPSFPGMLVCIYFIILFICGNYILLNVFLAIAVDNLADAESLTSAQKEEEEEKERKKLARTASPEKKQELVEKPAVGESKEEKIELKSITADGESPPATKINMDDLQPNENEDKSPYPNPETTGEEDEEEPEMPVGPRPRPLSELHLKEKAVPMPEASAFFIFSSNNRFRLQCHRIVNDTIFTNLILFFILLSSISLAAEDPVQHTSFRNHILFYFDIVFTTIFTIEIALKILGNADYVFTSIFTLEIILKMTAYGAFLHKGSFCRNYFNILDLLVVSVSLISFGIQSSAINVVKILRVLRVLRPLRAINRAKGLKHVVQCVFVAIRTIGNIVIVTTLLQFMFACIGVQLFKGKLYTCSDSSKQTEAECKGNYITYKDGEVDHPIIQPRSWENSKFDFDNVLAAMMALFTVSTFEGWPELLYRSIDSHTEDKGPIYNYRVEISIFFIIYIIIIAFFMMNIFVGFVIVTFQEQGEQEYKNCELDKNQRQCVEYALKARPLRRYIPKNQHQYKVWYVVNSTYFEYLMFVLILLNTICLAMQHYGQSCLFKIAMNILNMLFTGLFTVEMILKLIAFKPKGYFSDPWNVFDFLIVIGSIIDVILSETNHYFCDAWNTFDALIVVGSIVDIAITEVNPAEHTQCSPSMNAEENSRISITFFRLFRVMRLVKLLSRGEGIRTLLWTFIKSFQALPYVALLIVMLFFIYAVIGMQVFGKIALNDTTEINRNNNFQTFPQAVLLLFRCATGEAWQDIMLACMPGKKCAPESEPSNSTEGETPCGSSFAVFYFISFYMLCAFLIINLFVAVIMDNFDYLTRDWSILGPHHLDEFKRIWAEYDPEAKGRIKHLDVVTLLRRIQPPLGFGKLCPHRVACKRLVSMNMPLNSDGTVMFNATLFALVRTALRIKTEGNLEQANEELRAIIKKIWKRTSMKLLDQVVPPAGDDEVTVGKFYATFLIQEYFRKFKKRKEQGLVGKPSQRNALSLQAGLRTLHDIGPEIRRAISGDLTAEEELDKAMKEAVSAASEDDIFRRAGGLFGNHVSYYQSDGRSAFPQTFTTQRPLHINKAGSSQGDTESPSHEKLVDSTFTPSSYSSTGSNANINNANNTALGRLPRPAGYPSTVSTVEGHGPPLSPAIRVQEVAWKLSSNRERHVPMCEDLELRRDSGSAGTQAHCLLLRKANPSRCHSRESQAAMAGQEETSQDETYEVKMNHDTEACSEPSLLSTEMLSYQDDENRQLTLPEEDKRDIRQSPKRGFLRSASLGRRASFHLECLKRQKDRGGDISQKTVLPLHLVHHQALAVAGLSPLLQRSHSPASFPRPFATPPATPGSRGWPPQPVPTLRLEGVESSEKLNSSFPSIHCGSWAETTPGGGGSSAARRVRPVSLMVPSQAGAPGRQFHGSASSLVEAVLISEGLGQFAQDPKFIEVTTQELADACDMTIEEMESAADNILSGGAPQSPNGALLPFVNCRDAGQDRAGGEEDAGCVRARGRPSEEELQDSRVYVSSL
Method: (§1) The method of Example 1 was followed with slight modifications as will be apparent from the description below.
(§2) N-type calcium channel blocking activity was assayed in human embryonic kidney cells, HEK 293, stably transfected with the rat brain N-type calcium channel subunits (α1B+α2δ+β1b cDNA subunits). Alternatively, N-type calcium channels (α1B+α2δ+β1b cDNA subunits), L-type channels (α1C+α2δ+β1b cDNA subunits) and P/Q-type channels (α1A+α2δ+β1b cDNA subunits) were transiently expressed in HEK 293 cells. Briefly, cells were cultured in Dulbecco's modified eagle medium (DMEM) supplemented with 10% fetal bovine serum, 200 U/ml penicillin and 0.2 mg/ml streptomycin at 37° C. with 5% CO2. At 85% confluency cells were split with 0.25% trypsin/1 mM EDTA and plated at 10% confluency on glass coverslips. At 12 hours the medium was replaced and the cells transiently transfected using a standard calcium phosphate protocol and the appropriate calcium channel cDNAs. Fresh DMEM was supplied and the cells transferred to 28° C./ 5% CO2. Cells were incubated for 1 to 2 days to whole cell recording.
(§3) Whole cell patch clamp experiments were performed using an Axopatch 200B amplifier (Axon Instruments, Burlingame, Calif.) linked to a personal computer equipped with pCLAMP software. […] Data were analyzed using Clampfit (Axon Instruments) and SigmaPlot 4.0 (Jandel Scientific).

[2] = molecular target: T2, P/Q-type channels (α1A+α2δ+β1b) (Homo sapiens, UniProt O00555); assay: Whole cell patch clamp block of P/Q-type calcium channels transiently expressed in HEK 293 cells; conditions: step to +20 mV from holding potential −80 mV, 0.1 Hz, 5 mM barium external solution
T2 construct: expressed in transfected cells; host or cells: HEK 293 (transient)
T2 sequence (O00555 whole entry): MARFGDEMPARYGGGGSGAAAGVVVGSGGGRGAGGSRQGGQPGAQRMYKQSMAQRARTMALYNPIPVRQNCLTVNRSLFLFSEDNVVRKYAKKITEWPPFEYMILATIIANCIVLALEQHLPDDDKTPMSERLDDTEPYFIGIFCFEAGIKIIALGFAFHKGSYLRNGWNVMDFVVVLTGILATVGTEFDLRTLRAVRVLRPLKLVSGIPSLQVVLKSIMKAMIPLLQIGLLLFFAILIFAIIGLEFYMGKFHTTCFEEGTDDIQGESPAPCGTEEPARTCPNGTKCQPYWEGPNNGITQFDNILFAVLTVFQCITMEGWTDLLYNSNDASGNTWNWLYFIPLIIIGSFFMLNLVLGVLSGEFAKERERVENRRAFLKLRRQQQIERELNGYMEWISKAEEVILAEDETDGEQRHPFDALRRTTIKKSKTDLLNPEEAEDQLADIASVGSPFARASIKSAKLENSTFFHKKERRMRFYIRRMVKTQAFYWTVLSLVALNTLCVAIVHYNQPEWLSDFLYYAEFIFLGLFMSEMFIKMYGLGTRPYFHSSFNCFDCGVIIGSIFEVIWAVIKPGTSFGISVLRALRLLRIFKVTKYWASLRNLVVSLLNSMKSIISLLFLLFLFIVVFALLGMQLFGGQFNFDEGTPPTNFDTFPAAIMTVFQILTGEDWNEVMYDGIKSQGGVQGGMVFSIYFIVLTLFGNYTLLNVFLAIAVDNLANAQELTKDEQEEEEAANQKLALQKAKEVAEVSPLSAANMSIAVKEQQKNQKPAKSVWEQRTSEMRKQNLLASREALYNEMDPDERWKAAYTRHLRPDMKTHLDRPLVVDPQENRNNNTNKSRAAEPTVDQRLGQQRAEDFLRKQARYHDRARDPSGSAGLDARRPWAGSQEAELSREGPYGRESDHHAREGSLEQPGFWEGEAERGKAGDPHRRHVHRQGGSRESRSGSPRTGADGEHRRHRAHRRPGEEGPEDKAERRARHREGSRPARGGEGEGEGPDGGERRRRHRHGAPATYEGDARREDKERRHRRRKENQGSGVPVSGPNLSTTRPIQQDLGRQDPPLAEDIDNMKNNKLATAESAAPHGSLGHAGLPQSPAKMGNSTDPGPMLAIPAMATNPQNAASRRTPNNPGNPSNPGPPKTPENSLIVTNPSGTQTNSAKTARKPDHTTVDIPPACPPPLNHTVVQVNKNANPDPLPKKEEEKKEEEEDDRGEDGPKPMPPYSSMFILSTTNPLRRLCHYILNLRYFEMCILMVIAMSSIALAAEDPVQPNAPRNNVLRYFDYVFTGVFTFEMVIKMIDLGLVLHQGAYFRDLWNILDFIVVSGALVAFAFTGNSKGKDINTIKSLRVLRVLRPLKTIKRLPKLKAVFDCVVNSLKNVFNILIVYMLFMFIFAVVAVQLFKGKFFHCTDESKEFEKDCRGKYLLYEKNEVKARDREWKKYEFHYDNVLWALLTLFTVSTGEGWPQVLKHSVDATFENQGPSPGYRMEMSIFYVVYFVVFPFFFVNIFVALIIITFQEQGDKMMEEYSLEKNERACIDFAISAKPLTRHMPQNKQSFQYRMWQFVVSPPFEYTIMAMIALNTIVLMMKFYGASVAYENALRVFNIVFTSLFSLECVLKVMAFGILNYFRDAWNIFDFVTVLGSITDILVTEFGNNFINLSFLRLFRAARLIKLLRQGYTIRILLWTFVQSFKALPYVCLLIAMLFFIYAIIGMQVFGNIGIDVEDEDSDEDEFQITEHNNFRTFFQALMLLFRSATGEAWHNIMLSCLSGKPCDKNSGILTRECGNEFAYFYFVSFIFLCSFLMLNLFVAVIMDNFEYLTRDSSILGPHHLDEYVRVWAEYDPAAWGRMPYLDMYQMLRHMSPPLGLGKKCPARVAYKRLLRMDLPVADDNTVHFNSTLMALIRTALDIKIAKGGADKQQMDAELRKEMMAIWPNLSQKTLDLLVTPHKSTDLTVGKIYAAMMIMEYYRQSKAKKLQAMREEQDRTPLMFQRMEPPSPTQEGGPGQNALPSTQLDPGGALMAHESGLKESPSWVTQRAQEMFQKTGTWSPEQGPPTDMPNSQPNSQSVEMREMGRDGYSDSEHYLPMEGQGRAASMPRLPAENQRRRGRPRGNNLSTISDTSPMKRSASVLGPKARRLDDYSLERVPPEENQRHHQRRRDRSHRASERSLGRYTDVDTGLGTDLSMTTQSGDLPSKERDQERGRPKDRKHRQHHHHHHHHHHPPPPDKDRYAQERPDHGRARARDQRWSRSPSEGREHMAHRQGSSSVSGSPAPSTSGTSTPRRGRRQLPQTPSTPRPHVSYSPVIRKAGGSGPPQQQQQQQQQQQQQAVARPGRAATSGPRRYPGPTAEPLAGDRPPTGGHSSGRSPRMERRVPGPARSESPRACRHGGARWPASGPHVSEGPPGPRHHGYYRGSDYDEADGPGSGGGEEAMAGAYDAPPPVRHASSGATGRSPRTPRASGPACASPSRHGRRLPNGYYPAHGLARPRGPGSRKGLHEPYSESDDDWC
Method: as §1, §2, §3

[3] = molecular target: T3, rat brain N-type calcium channel (α1B+α2δ+β1b) (Rattus norvegicus, UniProt Q02294); assay: Whole cell patch clamp block of N-type calcium channels expressed in HEK 293 cells; conditions: step to +20 mV from holding potential −80 mV, 0.1 Hz, 5 mM barium external solution
T3 construct: expressed in transfected cells
Method: (§4) Antagonist activity was measured using whole cell patch recordings on human embryonic kidney cells either stably or transiently expressing rat α1B+α2b+β1b channels (N-type channels) with 5 mM barium as a charge carrier.
(§5) For transient expression, host cells, such as human embryonic kidney cells, HEK 293 (ATCC# CRL 1573) were grown in standard DMEM medium supplemented with 2 mM glutamine and 10% fetal bovine serum. HEK 293 cells were transfected by a standard calcium-phosphate-DNA coprecipitation method using the rat α1B+β1b+α2δ N-type calcium channel subunits in a vertebrate expression vector (for example, see Current Protocols in Molecular Biology).
(§6) After an incubation period of from 24 to 72 hrs the culture medium was removed and replaced with external recording solution (see below). Whole cell patch clamp experiments were performed using an Axopatch 200B amplifier (Axon Instruments, Burlingame, Calif.) linked to an IBM compatible personal computer equipped with pCLAMP software. Borosilicate glass patch pipettes (Sutter Instrument Co., Novato, Calif.) were polished (Microforge, Narishige, Japan) to a resistance of about 4 MΩ when filled with cesium methanesulfonate internal solution (composition in MM: 109 CsCH3SO4, 4 MgCl2, 9 EGTA, 9 HEPES, pH 7.2). Cells were bathed in 5 mM Ba^++ (in mM: 5 BaCl2, 1 MgCl2, 10 HEPES, 40 tetraethylammonium chloride, 10 glucose, 87.5 CsCl pH 7.2). Current data shown were elicited by a train of 100 ms test pulses at 0.066 Hz from −100 mV and/or −80 mV to various potentials (min. −20 mV, max. +30 mV). Drugs were perfused directly into the vicinity of the cells using a microperfusion system.
(§7) Normalized dose-response curves were fit (Sigmaplot 4.0, SPSS Inc., Chicago, Ill.) by the Hill equation to determine IC50 values. Steady-state inactivation curves were plotted as the normalized test pulse amplitude following 5 s inactivating prepulses at +10 mV increments. Inactivation curves were fit (Sigmaplot 4.0) with the Boltzman equation, Ipeak (normalized)=1/(1+exp((V−Vh)z/25.6)), where V and Vh are the conditioning and half inactivation potentials, respectively, and z is the slope factor.
as §1
(§8) N-type calcium channel blocking activity was assayed in human embryonic kidney cells, HEK 293, stably transfected with the rat brain N-type calcium channel subunits (α1B+α2δ+β1b cDNA subunits). Alternatively, N-type calcium channels (α1B+α2δ+β1b cDNA subunits), L-type channels (α1C+α2δ+β1b cDNA subunits) and P/Q-type channels (α1A+α2δ+β1b cDNA subunits) were transiently expressed in HEK 293 cells. […]

[4] = tested on: rat brain N-type calcium channel (α1B+α2δ+β1b); assay: as above; conditions: N-type, L-type and P/Q-type channels compared
Method: as §4, §5, §6, §7, §1, §8

IC50 [1] [µM]	IC50 [2] [µM]	IC50 [3] [µM]	Structure (SMILES)	selectivity for N-type channels versus L-type and P/Q-type (in words) [4]
2.06	6.4	0.14	O=C(CCOc1ccc(Cl)cc1Cl)Nc1nnc(C(F)(F)F)s1 [NT044, N-2-(5-trifluoromethyl-1,3,4-thiadiazolyl)-3-(2,4-dichlorophenoxy) propionyl amide]	somewhat selective for N-type channels
1.91	6.8	0.13	O=C(COC(c1ccc(Cl)cc1)c1ccc(Cl)cc1)Nc1ncc([N+](=O)[O-])s1 [NT051]	somewhat selective for N-type channels
